The values below come from patent US20240139211A1, “METHODS AND COMPOSITIONS FOR TREATING AMYOTROPHIC LATERAL SCLEROSIS” (Amylyx Pharmaceuticals, Inc., priority 2022, published 2024).

Like-named read-outs stand apart in the source and are kept apart here.

For orientation: EC50 means the midpoint of the concentration-response curve. As a reminder, the fold induction is the signal under treatment as a multiple of the control signal. A high value points to a large rise in signal.

One data set addresses hrCYP2D6 (Homo sapiens, UniProt P10635). The experiment in a line: CYP reaction phenotyping with hrCYP2D6 (% remaining). Type of data set: in vitro ADME. Conditions: for % Remaining of TA: hrCYP2D6 20 pmol CYP/mL, 5 μM TA, PB and TUDCA co-incubated.
The target in a further data set is hrCYP2C9 (Homo sapiens, UniProt P11712). The experiment in a line: CYP reaction phenotyping with hrCYP2C9 (% remaining). In kind it is in vitro ADME. To be noted: for % Remaining of TA: hrCYP2C9 20 pmol CYP/mL, 5 μM TA, PB and TUDCA co-incubated.
The next data set has as its target T1, hrCYP1A2 (Homo sapiens, UniProt P05177).
T1 sequence (P05177 1-516): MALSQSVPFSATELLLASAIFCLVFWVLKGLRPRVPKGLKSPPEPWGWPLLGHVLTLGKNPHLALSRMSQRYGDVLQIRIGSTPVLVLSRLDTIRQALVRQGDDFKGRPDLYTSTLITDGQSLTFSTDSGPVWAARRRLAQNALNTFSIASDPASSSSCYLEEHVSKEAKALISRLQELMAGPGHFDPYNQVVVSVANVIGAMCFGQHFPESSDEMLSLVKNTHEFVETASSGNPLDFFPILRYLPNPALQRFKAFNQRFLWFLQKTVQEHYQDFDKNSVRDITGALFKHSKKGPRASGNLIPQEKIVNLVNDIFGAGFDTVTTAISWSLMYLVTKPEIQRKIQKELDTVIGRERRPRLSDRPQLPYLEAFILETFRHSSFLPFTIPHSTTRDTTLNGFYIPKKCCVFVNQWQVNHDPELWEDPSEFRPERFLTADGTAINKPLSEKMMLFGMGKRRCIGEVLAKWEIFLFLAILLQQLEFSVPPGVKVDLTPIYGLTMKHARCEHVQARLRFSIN
The experiment in a line: CYP reaction phenotyping with hrCYP1A2 (% remaining). Type of data set: in vitro ADME. To be noted: for % Remaining of TA: hrCYP1A2 20 pmol CYP/mL, 5 μM TA, PB and TUDCA co-incubated.

The target in the next data set is T2, MATE1 (Homo sapiens, UniProt Q96FL8).
T2 sequence (Q96FL8 1-570): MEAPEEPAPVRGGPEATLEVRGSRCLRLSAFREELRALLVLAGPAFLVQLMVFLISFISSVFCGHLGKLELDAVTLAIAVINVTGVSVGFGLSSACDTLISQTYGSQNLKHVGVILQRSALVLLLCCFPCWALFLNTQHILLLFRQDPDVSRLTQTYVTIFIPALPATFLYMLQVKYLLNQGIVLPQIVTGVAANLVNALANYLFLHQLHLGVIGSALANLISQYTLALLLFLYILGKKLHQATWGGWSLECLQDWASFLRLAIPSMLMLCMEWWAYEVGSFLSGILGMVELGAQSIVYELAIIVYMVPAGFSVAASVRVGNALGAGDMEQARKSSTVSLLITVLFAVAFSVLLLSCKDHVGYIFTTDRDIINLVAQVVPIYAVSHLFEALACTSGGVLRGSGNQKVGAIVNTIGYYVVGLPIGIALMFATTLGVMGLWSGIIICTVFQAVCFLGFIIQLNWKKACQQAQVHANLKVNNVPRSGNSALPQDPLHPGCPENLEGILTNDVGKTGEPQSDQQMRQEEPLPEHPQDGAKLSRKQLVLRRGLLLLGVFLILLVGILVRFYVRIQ
In words: in vitro.

In the next data set the target is T3, OAT3 (Homo sapiens, UniProt Q8TCC7).
T3 sequence (Q8TCC7 1-542): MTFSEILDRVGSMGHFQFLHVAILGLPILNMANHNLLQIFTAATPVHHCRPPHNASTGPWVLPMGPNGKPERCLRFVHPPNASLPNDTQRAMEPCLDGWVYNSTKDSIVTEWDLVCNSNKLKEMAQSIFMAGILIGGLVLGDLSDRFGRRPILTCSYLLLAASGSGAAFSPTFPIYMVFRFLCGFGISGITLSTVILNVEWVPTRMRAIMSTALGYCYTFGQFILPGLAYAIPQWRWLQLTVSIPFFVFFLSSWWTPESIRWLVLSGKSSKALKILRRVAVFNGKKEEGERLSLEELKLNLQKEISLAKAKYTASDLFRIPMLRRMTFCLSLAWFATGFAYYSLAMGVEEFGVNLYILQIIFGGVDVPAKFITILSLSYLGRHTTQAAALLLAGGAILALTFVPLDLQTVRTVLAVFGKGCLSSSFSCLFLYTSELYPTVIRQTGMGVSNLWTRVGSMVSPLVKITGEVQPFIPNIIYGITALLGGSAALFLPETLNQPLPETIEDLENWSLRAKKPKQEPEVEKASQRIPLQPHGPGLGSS
The experiment in a line: in vitro.

For data set [1], the target named is CYPs in human liver microsomes (HLM) (Homo sapiens, UniProt P11712). In words: CYP reaction phenotyping in HLM with chemical inhibitors (% remaining). Conditions: +NADPH +sulfaphenazole (CYP2C9).
The target of data set [2] is T4, CYPs in human liver microsomes (HLM) (Homo sapiens, UniProt P05177).
T4 sequence (P05177 1-516): T1 sequence (P05177 1-516)
Described as above. Conditions: +NADPH +furafylline (CYP1A2), pre-incubated.

Data set [3] concerns the target CYPs in human liver microsomes (HLM) (Homo sapiens, UniProt P10635). The data set is described as above. To be noted: +NADPH +quinidine (CYP2D6).
For the next data set, the target named is OATP1B1 (Homo sapiens, UniProt Q9Y6L6). In words: in vitro.
Another data set relates to CYP2B6 mRNA. In words: in vitro. Conditions: human.
The next data set concerns the target P-gp (Homo sapiens, UniProt P08183). The experiment in a line: in vitro.

Chain of hrCYP2D6 (P10635 whole entry): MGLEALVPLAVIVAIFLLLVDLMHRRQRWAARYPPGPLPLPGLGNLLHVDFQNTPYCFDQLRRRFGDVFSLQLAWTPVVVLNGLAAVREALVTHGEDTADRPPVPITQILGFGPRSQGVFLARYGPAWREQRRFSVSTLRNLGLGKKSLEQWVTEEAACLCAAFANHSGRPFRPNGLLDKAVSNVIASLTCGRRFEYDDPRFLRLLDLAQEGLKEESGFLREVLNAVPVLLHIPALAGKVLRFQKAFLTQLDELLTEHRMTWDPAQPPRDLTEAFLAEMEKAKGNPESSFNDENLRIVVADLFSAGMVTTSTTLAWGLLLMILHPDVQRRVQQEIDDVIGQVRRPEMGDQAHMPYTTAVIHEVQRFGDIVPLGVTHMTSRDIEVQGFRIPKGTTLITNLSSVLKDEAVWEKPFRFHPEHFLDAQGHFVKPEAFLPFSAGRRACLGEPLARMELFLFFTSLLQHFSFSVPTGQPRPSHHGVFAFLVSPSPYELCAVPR
Chain of CYPs in human liver microsomes (HLM) (Homo sapiens, UniProt P10635) (P10635 whole entry): as above
Chain of hrCYP2C9 (P11712 whole entry): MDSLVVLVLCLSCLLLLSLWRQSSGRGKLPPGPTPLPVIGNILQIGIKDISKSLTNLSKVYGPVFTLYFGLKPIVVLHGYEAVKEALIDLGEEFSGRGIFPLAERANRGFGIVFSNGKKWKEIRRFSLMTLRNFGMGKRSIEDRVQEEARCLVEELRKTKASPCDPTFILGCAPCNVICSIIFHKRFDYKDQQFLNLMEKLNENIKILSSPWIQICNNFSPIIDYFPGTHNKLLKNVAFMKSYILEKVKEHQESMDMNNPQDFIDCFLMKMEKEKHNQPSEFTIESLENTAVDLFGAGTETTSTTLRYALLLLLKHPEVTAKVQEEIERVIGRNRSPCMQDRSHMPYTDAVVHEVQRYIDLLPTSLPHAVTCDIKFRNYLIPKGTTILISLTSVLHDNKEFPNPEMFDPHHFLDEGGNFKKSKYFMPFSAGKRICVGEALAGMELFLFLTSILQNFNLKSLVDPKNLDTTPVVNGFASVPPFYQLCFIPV
Chain of CYPs in human liver microsomes (HLM) (Homo sapiens, UniProt P11712) (P11712 whole entry): as above
Chain of OATP1B1 (Q9Y6L6 whole entry): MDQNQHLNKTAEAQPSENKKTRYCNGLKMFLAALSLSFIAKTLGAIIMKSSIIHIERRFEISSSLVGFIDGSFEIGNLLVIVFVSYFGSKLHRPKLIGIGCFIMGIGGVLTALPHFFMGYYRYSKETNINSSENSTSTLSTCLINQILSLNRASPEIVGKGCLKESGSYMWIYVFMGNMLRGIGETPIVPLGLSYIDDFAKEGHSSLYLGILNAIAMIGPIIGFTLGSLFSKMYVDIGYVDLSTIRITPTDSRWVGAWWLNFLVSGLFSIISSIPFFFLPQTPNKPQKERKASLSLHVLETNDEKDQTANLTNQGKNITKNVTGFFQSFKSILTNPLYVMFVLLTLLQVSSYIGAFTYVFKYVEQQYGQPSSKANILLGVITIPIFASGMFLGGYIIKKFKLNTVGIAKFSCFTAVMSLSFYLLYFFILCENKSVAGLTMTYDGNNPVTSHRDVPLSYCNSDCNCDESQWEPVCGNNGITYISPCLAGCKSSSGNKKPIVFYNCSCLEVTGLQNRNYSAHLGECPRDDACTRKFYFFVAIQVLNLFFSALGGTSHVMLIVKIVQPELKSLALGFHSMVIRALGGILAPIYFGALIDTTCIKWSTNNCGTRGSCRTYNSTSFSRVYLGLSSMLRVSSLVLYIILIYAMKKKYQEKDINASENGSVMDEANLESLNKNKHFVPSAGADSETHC
Chain of P-gp (P08183 whole entry): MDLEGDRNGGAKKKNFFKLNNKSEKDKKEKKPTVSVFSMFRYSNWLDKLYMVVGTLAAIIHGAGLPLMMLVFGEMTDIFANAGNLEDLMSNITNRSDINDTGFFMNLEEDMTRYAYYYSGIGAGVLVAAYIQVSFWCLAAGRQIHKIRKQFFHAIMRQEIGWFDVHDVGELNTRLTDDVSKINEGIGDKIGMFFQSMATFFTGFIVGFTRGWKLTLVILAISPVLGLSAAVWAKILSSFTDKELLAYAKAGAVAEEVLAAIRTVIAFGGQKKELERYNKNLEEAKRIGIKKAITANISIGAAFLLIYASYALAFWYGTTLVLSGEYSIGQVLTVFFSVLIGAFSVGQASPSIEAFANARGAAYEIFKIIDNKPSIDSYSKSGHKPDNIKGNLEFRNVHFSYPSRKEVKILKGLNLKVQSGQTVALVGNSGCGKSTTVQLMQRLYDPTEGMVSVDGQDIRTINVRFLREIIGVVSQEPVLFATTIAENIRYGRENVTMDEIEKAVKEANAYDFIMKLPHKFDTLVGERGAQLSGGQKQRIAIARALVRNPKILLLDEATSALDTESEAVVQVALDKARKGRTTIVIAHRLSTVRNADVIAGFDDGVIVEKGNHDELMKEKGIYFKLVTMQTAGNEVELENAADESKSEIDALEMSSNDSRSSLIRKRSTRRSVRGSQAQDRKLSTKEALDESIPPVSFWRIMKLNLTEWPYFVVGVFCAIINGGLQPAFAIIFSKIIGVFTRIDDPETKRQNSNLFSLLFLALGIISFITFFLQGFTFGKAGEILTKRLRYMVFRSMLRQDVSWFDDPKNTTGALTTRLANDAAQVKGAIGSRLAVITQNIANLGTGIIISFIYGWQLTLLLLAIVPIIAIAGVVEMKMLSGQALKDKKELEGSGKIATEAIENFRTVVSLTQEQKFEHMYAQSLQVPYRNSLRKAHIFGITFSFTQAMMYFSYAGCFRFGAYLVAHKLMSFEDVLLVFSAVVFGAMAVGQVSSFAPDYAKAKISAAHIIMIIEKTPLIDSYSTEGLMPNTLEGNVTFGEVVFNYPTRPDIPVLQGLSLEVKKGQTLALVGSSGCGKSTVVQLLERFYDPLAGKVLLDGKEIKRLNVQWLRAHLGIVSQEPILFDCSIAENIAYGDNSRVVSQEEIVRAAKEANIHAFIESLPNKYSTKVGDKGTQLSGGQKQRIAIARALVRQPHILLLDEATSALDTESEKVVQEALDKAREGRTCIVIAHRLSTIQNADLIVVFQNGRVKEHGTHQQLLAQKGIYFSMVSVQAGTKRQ

For the compound `O=C(O)CCCc1ccccc1` [PB, sodium phenylbutyrate], the “% remaining after 60 minutes” value is recorded as “greater than 90%” at hrCYP2D6 (human, 1 h, 5 µM, pH 7.4); “greater than 90%” on hrCYP2C9 (human, 1 h, 5 µM, pH 7.4); “greater than 90%” at hrCYP1A2 (human, 1 h, 5 µM, pH 7.4). The figures for the potency estimated from few doses on MATE1 and on OAT3 were less than 250 µM and less than 25 µM, respectively. Further, the “% remaining of TA in HLM” value in data set [1] (5 min) is reported as 103%; in data set [1] (20 min), 98.5%; in data set [1] (30 min) it was 99.6%; in data set [1] (60 min), 97.6%; in data set [2] (5 min), 116%; in data set [2] (10 min) it was 131%. Also, the “% remaining of TA in HLM” value came to 125% in [2] (20 min); 127% in data set [2] (30 min); 128% in data set [2] (60 min); 97.5% in [3] (20 min); 98.8% in [3] (60 min).

`C[C@H](CCC(=O)NCC(=O)O)[C@H]1CC[C@H]2[C@@H]3[C@@H](O)C[C@@H]4C[C@H](O)CC[C@]4(C)[C@H]3CC[C@]12C` [Glycoursodeoxycholic acid, glycoursodeoxycholic acid]: the potency estimated from few doses was approximately 10 µM on OATP1B1; less than 10 µM on P-gp (Caco-2 cells, probe 3H-digoxin); more than 100 µM on MATE1; less than 100 µM on OAT3. Also, a half-maximal response with CYP2B6 mRNA (hepatocyte cultures) (EC50 at 72 h) required 1.74 µM. Moreover, the fold induction at 72 h in the data set with CYP2B6 mRNA (hepatocyte cultures) was found to be 5.83.

For `O=C(O)Cc1ccccc1` [Phenylacetic acid, phenylacetic acid], the potency estimated from few doses on OATP1B1 and at P-gp was more than 7500 µM in each case. Also, the response in the data set with CYP2B6 mRNA was half-maximal at 19.5 µM (EC50 at 72 h).

As for tauroursodeoxycholic acid [TUDCA], the “% Remaining of TA” value came to 100% at hrCYP2D6 (0 min); 98.4% on hrCYP2D6 (5 min); 97.8% at hrCYP2D6 (10 min); 97.0% on hrCYP2D6 (20 min); 99.2% at hrCYP2D6 (30 min); 98.6% at hrCYP2D6 (60 min). For the same compound, the “% Remaining of TA” value on hrCYP2C9 (0 min) came to 100%; on hrCYP2C9 (5 min), 96.0%; on hrCYP2C9 (10 min), 98.8%; on hrCYP2C9 (20 min) it was 98.5%; on hrCYP2C9 (30 min), 97.8%; on hrCYP2C9 (60 min) it was 90.3%. Besides, the “% Remaining of TA” value on hrCYP1A2 (0 min) was 100%; on hrCYP1A2 (5 min), 98.0%; on hrCYP1A2 (10 min) it was 101%; on hrCYP1A2 (20 min), 99.9%; at hrCYP1A2 (30 min) it was 103%; on hrCYP1A2 (60 min), 90.5%. Further, the “% remaining of TA in HLM” value was determined as 96.9% in data set [1] (10 min); 92.8% in [1] (20 min); 95.0% in [1] (30 min); 95.3% in data set [1] (60 min); 123% in data set [2] (5 min); 123% in [2] (10 min). Also, the “% remaining of TA in HLM” value in [2] (20 min) amounted to 121%; in data set [2] (30 min), 120%; in data set [2] (60 min), 128%; in [3] (10 min) it was 110%; in data set [3] (20 min), 99.7%; in data set [3] (60 min) it was 87.2%.
